Source: patent US20250074896A1, “ARYLTETRAHYDROPYRIDAZINE DERIVATIVE OR SALT THEREOF AND INSECTICIDAL AGENT CONTAINING THE COMPOUND AND METHOD FOR USING SAME” (NIHON NOHYAKU CO., LTD., priority 2021, published 2025)
Where two headings read alike, the source gives them in different places.

Tests used:
Type in all cases: in vivo
[1] = system: Diamondback moth (Plutella xylostella); test: Insecticidal test on diamondback moth (dip treatment of Chinese cabbage seedlings with laid eggs); conditions: 144 h, read-out: insecticidal efficacy (corrected mortality rate) against diamondback moth
Source text: Insecticidal Test on Diamondback moth (Plutella xylostella)
Adults of diamondback moth were released onto Chinese cabbage seedlings and allowed to lay eggs thereon. At 2 days after the release of the adults, the Chinese cabbage seedlings with laid eggs were dipped for about 30 seconds in agrochemical dispersions diluted to 50 ppm or 500 ppm, each of which contained a different compound represented by the general formula (1) of the present invention as an active ingredient. After air-dried, the seedlings were kept in a thermostatic chamber at 25° C. At 6 days after the dip treatment, the number of surviving larvae per plot was counted, the corrected mortality rate was calculated according to the formula shown below, and the insecticidal efficacy was evaluated according to the criteria shown below. This test was conducted in triplicate using 10 adults of diamondback moth per plot.
(§1) • A: the mortality rate is 100%. • B: the mortality rate is 90 to 99%. • C: the mortality rate is 80 to 89%. • D: the mortality rate is 50 to 79%. • E: the mortality rate is 0 to 49%.

[2] = system: Western Flower Thrips (Frankliniella occidentalis); test: Insecticidal test on western flower thrips (kidney bean leaf pieces, hatched larvae); conditions: 96 h, read-out: insecticidal efficacy (corrected mortality rate) against western flower thrips
Source text: as §1
Insecticidal Test on Western Flower Thrips (Frankliniella occidentalis)
Female adults of western flower thrips were inoculated onto kidney bean leaf pieces, and allowed to lay eggs thereon for one day, then the female adults were removed. After 3 days, the hatched larvae on the leaf pieces were counted, and then the agrochemical dispersions diluted to 50 ppm or 500 ppm, each of which contained the compound described in Tables 1 to 6 as an active ingredient were applied. The number of larvae of the species surviving at 4 days after the treatment was counted, and the corrected mortality rate was calculated according to the formula shown below, and the insecticidal efficacy was evaluated according to the criteria of Test Example 1. This test was conducted in duplicate.

[3] = system: Small Brown Planthopper (Laodelphax striatellus); test: Insecticidal test on small brown planthopper (dipped rice seedlings, 3rd-instar larvae); conditions: 192 h, rice seedlings dipped 30 seconds, 8 days after inoculation, read-out: insecticidal efficacy (corrected mortality rate) against small brown planthopper
Source text: as §1
Insecticidal Test on Small Brown Planthopper (Laodelphax striatellus)
The compounds represented by the general formula (1) of the present invention or salts thereof were separately dispersed in water and diluted to 50 ppm or 500 ppm. Rice plant seedlings (variety: Nihonbare) were dipped in the agrochemical dispersions for 30 seconds. After air-dried, each seedling was put into a separate glass test tube and inoculated with ten 3rd-instar larvae of small brown planthopper, and then the glass test tubes were capped with cotton plugs. At 8 days after the inoculation, the numbers of surviving larvae and dead larvae were counted, the corrected mortality rate was calculated according to the formula shown below, and the insecticidal efficacy was evaluated according to the criteria of Test Example 1.

[4] = 500 ppm, dip about 30 seconds, 6 days after treatment, 25° C.
[5] = 500 ppm, 4 days after the treatment
[6] = dip about 30 seconds, 6 days after treatment, 25° C.

O=C(Nc1ccc(C(F)(F)F)cc1)C1=C(O)CN(c2ccc(C(F)(F)F)nc2)NC1=O [1-85, N-(4-trifluoromethylphenyl)-5-hydroxy-3-oxo-1-(6-(trifluoromethyl)pyridin-3-yl)-1,2,3,6-tetrahydropyridazine-4-carboxamide]
100%: mortality at 500 ppm [1] | mortality at 500 ppm [2]

CCNC(=O)N1C(=O)C(C(=O)Nc2ccc(F)cc2)=C(O)CN1c1ccc(C(F)(F)F)nc1 [3-22, N^1-ethyl-N^5-(4-fluorophenyl)-4-hydroxy-6-oxo-2-(6-(trifluoromethyl)pyridin-3-yl)-2,3-dihydropyridazine-1,5(6H)-dicarboxamide]
100%: mortality at 500 ppm [1, 4] | mortality at 500 ppm [3] | mortality at 50 ppm ([2]; 4 days after the treatment) | mortality at 500 ppm [2, 5]

CC(C)(C)OC(=O)N1C(=O)C(C(=O)Nc2ccc(F)cc2)=C(O)CN1c1ccc(C(F)(F)F)nc1 [3-308, tert-butyl 5-((4-fluorophenyl)carbamoyl)-4-hydroxy-6-oxo-2-(6-(trifluoromethyl)pyridin-3-yl)-2,3-dihydropyridazine-1(6H)-carboxylate]
100%: mortality at 50 ppm [1, 6] | mortality at 500 ppm [1, 4] | mortality at 50 ppm [3] | mortality at 500 ppm [3] | mortality at 50 ppm ([2]; 4 days after the treatment) | mortality at 500 ppm [2, 5]

CNC(=S)N1C(=O)C(C(=O)Nc2ccc(F)cc2)=C(O)CN1c1ccc(C(F)(F)F)nc1 [3-362, N-(4-fluorophenyl)-5-hydroxy-2-(methylcarbamothioyl)-3-oxo-1-(6-(trifluoromethyl)pyridin-3-yl)-1,2,3,6-tetrahydropyridazine-4-carboxamide]
100%: mortality at 50 ppm [1, 6] | mortality at 500 ppm [1, 4] | mortality at 50 ppm ([2]; 4 days after the treatment) | mortality at 500 ppm [2, 5]

COC(=O)N1C(=O)C(C(=O)Nc2ccn(C)n2)=C(O)CN1c1ccc(C#N)cc1 [3-437, methyl 2-(4-cyanophenyl)-4-hydroxy-5-((1-methyl-1H-pyrazol-3-yl)carbamoyl)-6-oxo-2,3-dihydropyridazine-1(6H)-carboxylate]
100%: mortality at 50 ppm [3] | mortality at 500 ppm [3] | mortality at 50 ppm ([2]; 4 days after the treatment) | mortality at 500 ppm [2, 5]

CCCNC(=O)N1C(=O)C(C(=O)Nc2ccn(C)n2)=C(O)CN1c1ccc(C#N)cc1 [3-563, N^5-(1-methyl-1H-pyrazol-3-yl) N^1-propyl 4-hydroxy-6-oxo-2-(4-cyanophenyl)-2,3-dihydropyridazine-1,5(6H)-dicarboxamide]
100%: mortality at 50 ppm [3] | mortality at 500 ppm [3]

CC(C)(C)OC(=O)N1C(=O)C(C(=S)Nc2ccc(F)cc2)=C(O)CN1c1ccc(C(F)(F)F)nc1 [4-34, tert-butyl 5-((4-fluorophenyl)carbamothioyl)-4-hydroxy-6-oxo-2-(6-(trifluoromethyl)pyridin-3-yl)-2,3-dihydropyridazine-1(6H)-carboxylate]
100%: mortality at 50 ppm [1, 6] | mortality at 500 ppm [1, 4] | mortality at 50 ppm [3] | mortality at 500 ppm [3] | mortality at 50 ppm ([2]; 4 days after the treatment) | mortality at 500 ppm [2, 5]

O=C(Nc1ccc(F)cc1)C1=C(S)CN(c2ccc(C(F)(F)F)nc2)NC1=O [5-2, N-(4-fluorophenyl)-5-mercapto-3-oxo-1-(6-(trifluoromethyl)pyridin-3-yl)-1,2,3,6-tetrahydropyridazine-4-carboxamide]
100%: mortality at 50 ppm [1, 6] | mortality at 500 ppm [1, 4] | mortality at 50 ppm [3] | mortality at 500 ppm [3] | mortality at 50 ppm ([2]; 4 days after the treatment) | mortality at 500 ppm [2, 5]

CC(C)(C)OC(=O)N1C(=O)C(C(=O)Nc2ccc(F)cc2)=C(S)CN1c1ccc(C(F)(F)F)nc1 [5-7, tert-butyl 5-((4-fluorophenyl)carbamoyl)-4-mercapto-6-oxo-2-(6-(trifluoromethyl)pyridin-3-yl)-2,3-dihydropyridazine-1(6H)-carboxylate]
100%: mortality at 50 ppm [1, 6] | mortality at 500 ppm [1, 4] | mortality at 50 ppm [3] | mortality at 500 ppm [3] | mortality at 50 ppm ([2]; 4 days after the treatment) | mortality at 500 ppm [2, 5]

CSC1=C(C(=O)Nc2ccc(F)cc2)C(=O)N(C(=O)OC(C)(C)C)N(c2ccc(C(F)(F)F)nc2)C1 [5-11, tert-butyl 5-((4-fluorophenyl)carbamoyl)-4-methylsulfanyl-6-oxo-2-(6-(trifluoromethyl)pyridin-3-yl)-2,3-dihydropyridazine-1(6H)-carboxylate]
100%: mortality at 50 ppm [1, 6] | mortality at 500 ppm [1, 4] | mortality at 50 ppm [3] | mortality at 500 ppm [3] | mortality at 50 ppm ([2]; 4 days after the treatment) | mortality at 500 ppm [2, 5]

N#Cc1ccc(N2CC(O)=C(C(=O)Nc3ccc(F)cc3)C(=S)N2)cn1 [6-6, 1-(6-cyanopyridin-3-yl)-N-(4-fluorophenyl)-5-hydroxy-3-thioxo-1,2,3,6-tetrahydropyridazine-4-carboxamide]
100%: mortality at 500 ppm [1, 4] | mortality at 500 ppm [3] | mortality at 500 ppm [2, 5]
